Reference: ChEMBL document CHEMBL4385643, “Design of a brain-penetrant CDK4/6 inhibitor for glioblastoma” (Bioorg Med Chem Lett, 2019)

Key:
[1] = molecular target: Dual specificity protein kinase TTK (Homo sapiens) (UniProt P33981); assay: Inhibition of tracer 236 binding to recombinant full length human GST-tagged TTK expressed in baculovirus expression system at 0.1 uM measured after 60 mins by Lanthascreen assay
[2] = molecular target: Cyclin-dependent kinase 14/Cyclin-Y (Homo sapiens) (UniProt O94921+Q8ND76); assay: Inhibition of tracer 236 binding to recombinant human GST-tagged CDK14/cyclin Y catalytic domain (CDK14: full length, Cyclin Y: 2 to end) expressed by baculovirus in Sf9 insect cells expression system at 0.1 uM measured after 60 mins by Lanthascreen assay relative to control
[3] = molecular target: Fibroblast growth factor receptor 4 (Homo sapiens) (UniProt P22455); assay: Inhibition of recombinant human His-tagged FGFR4 catalytic domain ([…]) expressed in baculovirus expression system at 0.1 uM using tyrosine-4 peptide as substrate incubated for 60 mins by Z'-LYTE assay relative to control
[4] = molecular target: Protein kinase C epsilon type (Homo sapiens) (UniProt Q02156); assay: Inhibition of recombinant full length human GST-tagged PKCepsilon expressed in insect expression system at 0.1 uM using serine/threonine-7 peptide as substrate incubated for 60 mins by Z'-LYTE assay relative to control
[5] = molecular target: Cyclin-Y/Cyclin-dependent kinase 16 (Homo sapiens) (UniProt Q00536+Q8ND76); assay: Inhibition of tracer 236 binding to recombinant human GST-tagged CDK16/cyclin Y catalytic domain (CDK16: 108 to end, Cyclin Y: 2 to end) expressed by baculovirus in Sf9 insect cells expression system at 0.1 uM measured after 60 mins by Lanthascreen assay relative to control
[6] = molecular target: Casein kinase II subunit alpha (Homo sapiens) (UniProt P68400); assay: Inhibition of recombinant full length human His-tagged CK2 alpha 1 expressed in baculovirus expression system at 0.1 uM using serine/threonine-11 peptide as substrate incubated for 60 mins by Z'-LYTE assay relative to control
Casein kinase II subunit alpha (Homo sapiens), sequence (P68400 whole entry, looked up, the tested form may be a part): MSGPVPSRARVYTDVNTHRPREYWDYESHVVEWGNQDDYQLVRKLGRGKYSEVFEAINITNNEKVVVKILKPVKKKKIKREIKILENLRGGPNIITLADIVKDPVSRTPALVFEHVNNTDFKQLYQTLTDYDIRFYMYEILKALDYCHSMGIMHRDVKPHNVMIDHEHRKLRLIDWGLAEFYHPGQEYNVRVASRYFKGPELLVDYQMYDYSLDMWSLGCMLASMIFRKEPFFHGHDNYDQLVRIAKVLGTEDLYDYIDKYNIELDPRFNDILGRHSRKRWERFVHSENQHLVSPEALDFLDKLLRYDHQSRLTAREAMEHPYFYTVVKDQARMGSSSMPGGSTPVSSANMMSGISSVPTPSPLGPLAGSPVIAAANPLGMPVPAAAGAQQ

[7] = molecular target: Serine/threonine-protein kinase Nek1 (Homo sapiens) (UniProt Q96PY6); assay: Inhibition of recombinant full length human GST-tagged NEK1 catalytic domain (1 to 505 amino acids) expressed in baculovirus expression system at 0.1 uM using serine/threonine-7 peptide as substrate incubated for 60 mins by Z'-LYTE assay relative to control
[8] = molecular target: High affinity nerve growth factor receptor (Homo sapiens) (UniProt P04629); assay: Inhibition of recombinant human His-tagged TRKA catalytic domain (441 to 796 residues) expressed in baculovirus expression system at 0.1 uM using tyrosine-1 peptide as substrate incubated for 60 mins by Z'-LYTE assay relative to control
[9] = molecular target: Death-associated protein kinase 1 (Homo sapiens) (UniProt P53355); assay: Inhibition of recombinant human GST-tagged DAPK1 catalytic domain (1 to 363 residues) expressed in baculovirus expression system at 0.1 uM using ZIPtide peptide as substrate incubated for 60 mins by Adapta assay relative to control
Death-associated protein kinase 1 (Homo sapiens), sequence (P53355 whole entry, looked up, the tested form may be a part, canonical isoform): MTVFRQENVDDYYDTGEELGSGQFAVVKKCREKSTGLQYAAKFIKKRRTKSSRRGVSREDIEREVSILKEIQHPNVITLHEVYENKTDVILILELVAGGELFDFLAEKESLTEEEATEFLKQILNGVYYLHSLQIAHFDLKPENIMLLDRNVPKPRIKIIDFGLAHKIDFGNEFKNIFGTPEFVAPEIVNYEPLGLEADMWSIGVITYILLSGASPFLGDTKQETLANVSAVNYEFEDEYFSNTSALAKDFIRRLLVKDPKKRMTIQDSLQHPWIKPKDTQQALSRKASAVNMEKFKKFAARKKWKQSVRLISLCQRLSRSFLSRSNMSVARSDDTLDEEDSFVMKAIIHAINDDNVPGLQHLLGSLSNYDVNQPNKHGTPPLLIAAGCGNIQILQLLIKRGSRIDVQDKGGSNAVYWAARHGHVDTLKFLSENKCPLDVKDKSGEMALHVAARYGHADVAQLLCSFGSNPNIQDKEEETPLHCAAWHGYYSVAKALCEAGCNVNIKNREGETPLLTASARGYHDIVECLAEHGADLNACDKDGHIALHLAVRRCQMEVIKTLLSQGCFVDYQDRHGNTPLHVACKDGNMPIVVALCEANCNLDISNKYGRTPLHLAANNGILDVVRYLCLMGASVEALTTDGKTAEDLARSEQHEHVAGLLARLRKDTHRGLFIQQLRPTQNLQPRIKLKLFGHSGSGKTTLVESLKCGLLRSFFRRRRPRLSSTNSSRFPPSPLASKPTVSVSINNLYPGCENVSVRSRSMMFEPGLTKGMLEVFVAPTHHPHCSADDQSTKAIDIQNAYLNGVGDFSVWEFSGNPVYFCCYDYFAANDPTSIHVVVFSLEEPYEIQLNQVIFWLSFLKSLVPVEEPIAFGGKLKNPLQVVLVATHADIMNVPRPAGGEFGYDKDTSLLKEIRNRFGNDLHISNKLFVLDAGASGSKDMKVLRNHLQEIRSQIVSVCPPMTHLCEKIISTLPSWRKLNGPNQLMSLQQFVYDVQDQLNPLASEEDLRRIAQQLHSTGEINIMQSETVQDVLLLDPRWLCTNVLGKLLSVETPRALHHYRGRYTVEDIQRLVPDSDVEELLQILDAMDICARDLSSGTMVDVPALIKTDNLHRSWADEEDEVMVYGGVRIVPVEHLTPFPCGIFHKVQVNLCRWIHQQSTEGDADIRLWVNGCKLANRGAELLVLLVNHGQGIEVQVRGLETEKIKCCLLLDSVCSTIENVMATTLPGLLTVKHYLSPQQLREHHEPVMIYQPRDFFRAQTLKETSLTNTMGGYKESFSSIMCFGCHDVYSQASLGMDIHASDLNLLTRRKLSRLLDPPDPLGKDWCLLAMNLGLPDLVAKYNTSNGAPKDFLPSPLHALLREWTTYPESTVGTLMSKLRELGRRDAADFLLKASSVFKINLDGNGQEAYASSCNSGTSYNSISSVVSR

[10] = molecular target: Casein kinase I isoform delta (Homo sapiens) (UniProt P48730); assay: Inhibition of recombinant full length human GST-tagged CK1delta expressed in baculovirus expression system at 0.1 uM using serine/threonine-11 peptide as substrate incubated for 60 mins by Z'-LYTE assay relative to control
Casein kinase I isoform delta (Homo sapiens), sequence (P48730 whole entry, looked up, the tested form may be a part, canonical isoform): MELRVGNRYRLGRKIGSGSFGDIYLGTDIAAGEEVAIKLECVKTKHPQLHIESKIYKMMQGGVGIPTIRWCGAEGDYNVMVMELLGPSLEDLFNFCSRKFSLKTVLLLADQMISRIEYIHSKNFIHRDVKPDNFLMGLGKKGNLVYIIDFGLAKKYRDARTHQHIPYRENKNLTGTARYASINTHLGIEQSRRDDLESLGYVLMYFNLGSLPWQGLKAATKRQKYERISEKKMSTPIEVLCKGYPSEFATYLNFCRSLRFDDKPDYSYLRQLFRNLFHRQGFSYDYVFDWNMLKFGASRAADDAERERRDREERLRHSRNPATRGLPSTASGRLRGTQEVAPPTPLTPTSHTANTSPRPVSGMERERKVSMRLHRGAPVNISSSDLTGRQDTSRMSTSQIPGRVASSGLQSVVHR

[11] = molecular target: Receptor tyrosine-protein kinase erbB-4 (Homo sapiens) (UniProt Q15303); assay: Inhibition of recombinant human GST-tagged ERBB4 catalytic domain (708 to 993 residues) expressed in baculovirus expression system at 0.1 uM using tyrosine-1 peptide as substrate incubated for 60 mins by Z'-LYTE assay relative to control
[12] = molecular target: Bone morphogenetic protein receptor type-1A (Homo sapiens) (UniProt P36894); assay: Inhibition of tracer 178 binding to recombinant human GST-tagged BMPR1A catalytic domain (187 to 532 amino acids) expressed insect cell expression system at 0.1 uM measured after 60 mins by Lanthascreen assay relative to control
[13] = molecular target: Phosphorylase b kinase gamma catalytic chain, liver/testis isoform (Homo sapiens) (UniProt P15735); assay: Inhibition of recombinant full length human GST-tagged PHKG2 expressed in baculovirus expression system at 0.1 uM using serine/threonine-7 peptide as substrate incubated for 60 mins by Z'-LYTE assay relative to control
Phosphorylase b kinase gamma catalytic chain, liver/testis isoform (Homo sapiens), sequence (P15735 whole entry, the tested form may be a part, canonical isoform): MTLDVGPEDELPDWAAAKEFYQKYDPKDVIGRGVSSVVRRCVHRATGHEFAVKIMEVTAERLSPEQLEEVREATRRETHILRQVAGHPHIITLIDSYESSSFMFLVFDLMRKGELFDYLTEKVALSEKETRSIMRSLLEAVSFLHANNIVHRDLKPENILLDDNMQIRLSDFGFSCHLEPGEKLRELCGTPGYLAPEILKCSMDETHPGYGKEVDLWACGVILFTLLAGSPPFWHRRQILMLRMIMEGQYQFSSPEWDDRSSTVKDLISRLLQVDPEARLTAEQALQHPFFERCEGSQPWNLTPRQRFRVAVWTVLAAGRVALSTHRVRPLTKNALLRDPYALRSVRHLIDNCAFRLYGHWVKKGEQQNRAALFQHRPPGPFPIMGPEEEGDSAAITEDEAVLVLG

[14] = molecular target: Receptor tyrosine-protein kinase erbB-2 (Homo sapiens) (UniProt P04626); assay: Inhibition of recombinant human His-tagged ERBB2 catalytic domain (676 to 1255 residues) expressed in baculovirus expression system at 0.1 uM using tyrosine-6 peptide as substrate incubated for 60 mins by Z'-LYTE assay relative to control
[15] = molecular target: Serine/threonine-protein kinase 3 (Homo sapiens) (UniProt Q13188); assay: Inhibition of recombinant full length human GST-tagged MST2 expressed in baculovirus expression system at 0.1 uM using serine/threonine-7 peptide as substrate incubated for 60 mins by Z'-LYTE assay relative to control
Serine/threonine-protein kinase 3 (Homo sapiens), sequence (Q13188 whole entry): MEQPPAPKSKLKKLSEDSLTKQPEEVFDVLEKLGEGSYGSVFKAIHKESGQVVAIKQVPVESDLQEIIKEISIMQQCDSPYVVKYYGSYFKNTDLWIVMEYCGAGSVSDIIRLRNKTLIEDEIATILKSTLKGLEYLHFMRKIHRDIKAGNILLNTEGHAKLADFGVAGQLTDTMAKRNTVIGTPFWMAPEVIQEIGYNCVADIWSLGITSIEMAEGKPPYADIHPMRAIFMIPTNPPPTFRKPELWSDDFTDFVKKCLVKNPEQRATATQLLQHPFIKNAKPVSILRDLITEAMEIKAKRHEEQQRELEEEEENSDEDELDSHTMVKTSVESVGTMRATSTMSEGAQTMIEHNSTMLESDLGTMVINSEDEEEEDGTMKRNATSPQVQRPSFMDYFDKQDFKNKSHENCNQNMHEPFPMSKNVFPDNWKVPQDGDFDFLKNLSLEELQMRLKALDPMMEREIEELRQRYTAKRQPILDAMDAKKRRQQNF

[16] = molecular target: Serine/threonine-protein kinase MARK1 (Homo sapiens) (UniProt Q9P0L2); assay: Inhibition of recombinant full length human GST-tagged MARK1 expressed in baculovirus expression system at 0.1 uM using serine/threonine-21 peptide as substrate incubated for 60 mins by Z'-LYTE assay relative to control
[17] = molecular target: Serine/threonine-protein kinase Chk1 (Homo sapiens) (UniProt O14757); assay: Inhibition of recombinant full length human His-tagged CHK1 expressed in baculovirus expression system at 0.1 uM using serine/threonine-19 peptide as substrate incubated for 60 mins by Z'-LYTE assay relative to control
[18] = molecular target: Dual specificity protein kinase CLK4 (Homo sapiens) (UniProt Q9HAZ1); assay: Inhibition of tracer 236 binding to recombinant full length human GST-tagged CLK4 expressed in baculovirus expression system at 0.1 uM measured after 60 mins by Lanthascreen assay relative to control
Dual specificity protein kinase CLK4 (Homo sapiens), sequence (Q9HAZ1 whole entry, looked up): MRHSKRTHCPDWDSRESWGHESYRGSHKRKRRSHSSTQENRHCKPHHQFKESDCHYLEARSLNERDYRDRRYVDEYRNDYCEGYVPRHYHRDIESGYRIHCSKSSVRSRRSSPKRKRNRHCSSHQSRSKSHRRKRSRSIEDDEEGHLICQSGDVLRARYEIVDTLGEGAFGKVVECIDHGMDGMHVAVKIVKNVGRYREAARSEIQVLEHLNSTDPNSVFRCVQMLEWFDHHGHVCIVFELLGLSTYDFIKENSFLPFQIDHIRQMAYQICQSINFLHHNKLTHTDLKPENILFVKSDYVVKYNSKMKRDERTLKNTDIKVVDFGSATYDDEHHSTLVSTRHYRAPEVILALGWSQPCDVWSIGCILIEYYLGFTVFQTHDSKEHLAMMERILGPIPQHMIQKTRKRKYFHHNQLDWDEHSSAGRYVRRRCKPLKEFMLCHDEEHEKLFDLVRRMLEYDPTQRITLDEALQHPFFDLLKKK

[19] = molecular target: Serine/threonine-protein kinase TBK1 (Homo sapiens) (UniProt Q9UHD2); assay: Inhibition of recombinant full length human GST-tagged TBK1 expressed in insect expression system at 0.1 uM using serine/threonine-5 peptide as substrate incubated for 60 mins by Z'-LYTE assay relative to control
[20] = molecular target: Homeodomain-interacting protein kinase 1 (Homo sapiens) (UniProt Q86Z02); assay: Inhibition of recombinant human GST-tagged HIPK1 catalytic domain (158 to 555 residues) expressed in baculovirus expression system at 0.1 uM using serine/threonine-9 peptide as substrate incubated for 60 mins by Z'-LYTE assay relative to control
[21] = molecular target: Myotonin-protein kinase (Homo sapiens) (UniProt Q09013); assay: Inhibition of tracer 236 binding to recombinant full length human GST-tagged DMPK expressed in baculovirus expression system at 0.1 uM measured after 60 mins by Lanthascreen assay relative to control
[22] = molecular target: Serine/threonine-protein kinase Chk2 (Homo sapiens) (UniProt O96017); assay: Inhibition of recombinant full length human His-tagged CHK2 expressed in baculovirus expression system at 0.1 uM using serine/threonine-07 peptide as substrate incubated for 60 mins by Z'-LYTE assay relative to control
Serine/threonine-protein kinase Chk2 (Homo sapiens), sequence (O96017 whole entry): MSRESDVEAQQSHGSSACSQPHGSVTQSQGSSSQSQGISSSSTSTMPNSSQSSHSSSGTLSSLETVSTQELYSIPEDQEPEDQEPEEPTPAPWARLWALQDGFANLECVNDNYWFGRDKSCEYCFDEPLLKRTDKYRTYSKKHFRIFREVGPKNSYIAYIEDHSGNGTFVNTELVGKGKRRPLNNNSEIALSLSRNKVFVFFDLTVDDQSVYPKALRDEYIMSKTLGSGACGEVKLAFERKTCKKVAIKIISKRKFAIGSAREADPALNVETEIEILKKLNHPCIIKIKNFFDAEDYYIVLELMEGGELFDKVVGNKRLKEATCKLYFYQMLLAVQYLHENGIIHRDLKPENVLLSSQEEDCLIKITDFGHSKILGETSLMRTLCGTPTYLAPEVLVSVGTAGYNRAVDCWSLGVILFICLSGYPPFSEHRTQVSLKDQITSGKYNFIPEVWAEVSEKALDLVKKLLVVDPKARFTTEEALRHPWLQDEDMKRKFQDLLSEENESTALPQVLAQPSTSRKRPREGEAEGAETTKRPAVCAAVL

Dual specificity protein kinase TTK (Homo sapiens), sequence (P33981 whole entry, the tested form may be a part): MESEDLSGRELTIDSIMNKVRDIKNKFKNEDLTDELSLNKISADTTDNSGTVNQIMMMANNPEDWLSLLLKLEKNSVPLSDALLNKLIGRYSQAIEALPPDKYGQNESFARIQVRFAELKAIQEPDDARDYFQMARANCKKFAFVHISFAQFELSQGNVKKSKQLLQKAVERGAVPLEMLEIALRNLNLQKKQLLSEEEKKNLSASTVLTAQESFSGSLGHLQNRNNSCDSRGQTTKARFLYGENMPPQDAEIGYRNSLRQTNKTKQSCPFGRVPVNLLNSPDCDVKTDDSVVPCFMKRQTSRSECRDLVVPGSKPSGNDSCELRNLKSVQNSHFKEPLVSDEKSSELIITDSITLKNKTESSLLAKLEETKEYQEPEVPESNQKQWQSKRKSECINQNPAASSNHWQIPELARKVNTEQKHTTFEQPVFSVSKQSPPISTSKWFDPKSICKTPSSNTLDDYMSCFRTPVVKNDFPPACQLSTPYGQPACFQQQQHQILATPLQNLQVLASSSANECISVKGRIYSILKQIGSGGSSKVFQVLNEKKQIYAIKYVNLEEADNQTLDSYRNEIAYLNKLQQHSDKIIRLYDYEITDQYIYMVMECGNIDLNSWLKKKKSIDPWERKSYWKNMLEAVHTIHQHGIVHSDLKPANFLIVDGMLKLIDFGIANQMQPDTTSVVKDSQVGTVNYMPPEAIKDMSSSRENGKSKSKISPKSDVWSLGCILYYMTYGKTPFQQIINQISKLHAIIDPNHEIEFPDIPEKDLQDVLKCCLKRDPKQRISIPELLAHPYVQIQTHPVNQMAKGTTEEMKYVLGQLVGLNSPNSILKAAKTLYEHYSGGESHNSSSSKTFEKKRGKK

SMILES	inhibition [1] [%]	inhibition [2] [%]	inhibition [3] [%]	inhibition [4] [%]	inhibition [5] [%]	inhibition [6] [%]	inhibition [7] [%]	inhibition [8] [%]	inhibition [9] [%]	inhibition [10] [%]	inhibition [11] [%]	inhibition [12] [%]	inhibition [13] [%]	inhibition [14] [%]	inhibition [15] [%]	inhibition [16] [%]	inhibition [17] [%]	inhibition [18] [%]	inhibition [19] [%]	inhibition [20] [%]	other results
CCN1CC2(C1)CN(c1ccc(Nc3ncc(F)c(-c4cnn5c4[C@H](C)CCCC5)n3)nc1)C2	41	41.5	4	14.5	79	0.5	0	20	14	5	-6.5	0.5	23	0	4	16.5	9	95	8	4.5	inhibition [21]: 46%; inhibition [22]: 22.5%
CCN1CCN(Cc2ccc(Nc3ncc(F)c(-c4cc(F)c5nc(C)n(C(C)C)c5c4)n3)nc2)CC1 [ABEMACICLIB]	54.5	56	11	22.5	86.5	31.5	14	31	31.2	10.5	3	-0.3	7	1.5	13	6	-4.5	97.7	43	78.5	inhibition [21]: 76.9%; inhibition [22]: 0.5%
